Literature values, collected in PMC7582876, “Antiproliferative Properties of a Few Auranofin-Related Gold(I) and Silver(I) Complexes in Leukemia Cells and their Interferences with the Ubiquitin Proteasome System” (Molecules, 2020).

Assays:
[1] = system: human embryonic kidney cells (HEK293); design: method as in PMID 29057040; details: previously assessed, ref [18], read-out: IC50, cell viability of healthy cells (HEK293); cited from earlier work
[2] = system: human fibroblast cells (HDF); design: method as in PMID 29057040; details: previously assessed, ref [18], read-out: IC50, cell viability of healthy cells (HDF); cited from earlier work

CCP(CC)CC.[Au+].[Cl-] [Au(PEt3)Cl]
IC50 [1]: > 5 µM
IC50 [2]: > 5 µM

CC[P](CC)(CC)[Au][I] [Au(PEt3)I]
IC50 [1]: > 5 µM
IC50 [2]: > 5 µM

CC(=O)OC[C@H]1O[C@@H]([S-])[C@H](OC(C)=O)[C@@H](OC(C)=O)[C@@H]1OC(C)=O.CCP(CC)CC.[Au+] [auranofin, Auranofin]
IC50 [1]: > 5 µM
IC50 [2]: > 5 µM
